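Five concentrations, 48 hours, 96-well plates. GI50 = concentration required for 50% inhibition of growth. The concentration for full growth arrest is given as TGI.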

Among the test systems are DU-145 prostate; HCC-2998 colon; HOP-92 NSCLC; MDA-MB-231 breast; MDA-MB-435; NCI-H23 lung; SF-268 CNS; SK-OV-3 ovarian; SN12C renal; SW-620 colon.
Assay in all cases: NCI-60 cell line screen, 48 h

For `[N-]=[N+]=C(C(=O)OCC#CCOC(=O)C(=[N+]=[N-])S(=O)(=O)c1ccccc1)S(=O)(=O)c1ccccc1`, the TGI in the assay with DU-145 prostate, in the assay on HCC-2998 colon, in the assay on HOP-92 NSCLC, in the assay with MDA-MB-231 breast, in the assay with MDA-MB-435 and in the assay on NCI-H23 lung was greater than 10 µM each time. Moreover, the TGI in the assay on SF-268 CNS, with SK-OV-3 ovarian, with SN12C renal and in the assay with SW-620 colon was greater than 10 µM each time.
As to `O=C(c1cc(F)c(Cl)cc1Cl)N1N=C(c2ccccc2)CC1(O)c1ccccc1` (stereo unspecified), the GI50 was 17.3 µM in the assay with DU-145 prostate; 16900 nM in the assay on HCC-2998 colon; 13 µM in the assay on HOP-92 NSCLC; 15700 nM in the assay on MDA-MB-231 breast; 22100 nM with MDA-MB-435; 20200 nM with NCI-H23 lung. Moreover, the GI50 in the assay with SF-268 CNS is 21.9 µM; with SK-OV-3 ovarian, 28400 nM; in the assay on SN12C renal, 18700 nM; with SW-620 colon, 18900 nM. Further, the TGI in the assay with DU-145 prostate is 35.9 µM; in the assay on HCC-2998 colon it was 37.8 µM; in the assay on HOP-92 NSCLC it was 29.8 µM; in the assay with MDA-MB-231 breast it was 33.3 µM; with MDA-MB-435, 49.4 µM; in the assay on NCI-H23 lung, 48.2 µM. Moreover, the TGI with SF-268 CNS was found to be 53.2 µM; in the assay on SK-OV-3 ovarian, 80.1 µM; with SN12C renal, 40.5 µM; in the assay with SW-620 colon, 36.9 µM.
With `COc1ccc2c(c1)nc(N)c1c3cc(OC)c(OC)cc3cn21`, the TGI with DU-145 prostate is 8.63 µM; in the assay with HCC-2998 colon, 16.5 µM; with HOP-92 NSCLC, 23.9 µM; in the assay with MDA-MB-231 breast it was 17.4 µM; in the assay on NCI-H23 lung, 5.7 µM; in the assay on SF-268 CNS, 17.5 µM. Further, the TGI was 0.321 µM in the assay with SK-OV-3 ovarian, 17.5 µM with SN12C renal and 19.8 µM in the assay on SW-620 colon. In addition, the GI50 with HCC-2998 colon was 43.4 nM; in the assay with HOP-92 NSCLC, 5.09 µM; in the assay with MDA-MB-231 breast it was 345 nM; in the assay with MDA-MB-435 it was less than 10 nM; in the assay with SK-OV-3 ovarian, less than 10 nM; in the assay with SN12C renal, 147 nM. Moreover, in the assay with SW-620 colon, the GI50 was less than 10 nM.
`Cc1cc(C)c(O)c(CNCCCCCCNCc2cc(C)cc(C)c2O)c1`: the GI50 was 1.7 µM in the assay with DU-145 prostate; 1020 nM in the assay with HCC-2998 colon; 1.25 µM with HOP-92 NSCLC; 1380 nM with MDA-MB-231 breast; 1430 nM in the assay with MDA-MB-435; 1700 nM in the assay with NCI-H23 lung. In addition, the GI50 was 1.61 µM in the assay with SF-268 CNS, 1830 nM in the assay with SK-OV-3 ovarian, 1830 nM with SN12C renal and 1810 nM in the assay on SW-620 colon. For the same compound, the TGI in the assay on DU-145 prostate turned out to be 3.3 µM; in the assay with HCC-2998 colon it was 2.39 µM; in the assay on HOP-92 NSCLC it was 4.01 µM; with MDA-MB-231 breast it was 2.9 µM; in the assay with MDA-MB-435, 2.81 µM; in the assay on NCI-H23 lung, 3.28 µM. The TGI is 3.36 µM with SF-268 CNS, 3.67 µM in the assay on SK-OV-3 ovarian, 3.92 µM in the assay on SN12C renal and 3.56 µM in the assay with SW-620 colon.
For `O=C(Nc1ccc(-n2cc(-c3ccncc3)c(-c3ccc(Cl)c(O)c3)n2)cc1)Nc1cc(C(F)(F)F)cc(C(F)(F)F)c1`, the GI50 in the assay on DU-145 prostate is 1.78 µM; with HCC-2998 colon, 1790 nM; in the assay on HOP-92 NSCLC it was 1.34 µM; with MDA-MB-231 breast, 2110 nM; in the assay with MDA-MB-435, 1770 nM; in the assay with NCI-H23 lung, 2130 nM. Further, the GI50 was 1.62 µM in the assay on SF-268 CNS, 2130 nM with SK-OV-3 ovarian, 2030 nM in the assay on SN12C renal and 2240 nM in the assay on SW-620 colon. Besides, the TGI with DU-145 prostate was determined as 3.34 µM; with HCC-2998 colon it was 3.37 µM; with HOP-92 NSCLC, 3.99 µM; in the assay on MDA-MB-231 breast, 4.93 µM; in the assay on MDA-MB-435, 3.45 µM; with NCI-H23 lung, 4.91 µM. Further, the TGI was found to be 3.27 µM with SF-268 CNS, 5.43 µM in the assay with SK-OV-3 ovarian, 7.57 µM in the assay on SN12C renal and 4.44 µM in the assay on SW-620 colon.
Regarding `C[C@]12CC[C@H](O)CC1=CC[C@@H]1C2CC[C@]2(C)c3nn(-c4ccc(F)cc4)nc3CC12` (stereo partly specified), the TGI in the assay on DU-145 prostate is greater than 100 µM; in the assay with HCC-2998 colon, 72.7 µM; with HOP-92 NSCLC, greater than 100 µM; in the assay on MDA-MB-231 breast it was greater than 100 µM; in the assay with MDA-MB-435 it was greater than 100 µM; in the assay with NCI-H23 lung, greater than 100 µM. Moreover, the TGI with SF-268 CNS, in the assay with SK-OV-3 ovarian, with SN12C renal and with SW-620 colon was greater than 100 µM each time.
`COC(=O)COc1ccc(/C=C2\N=C(c3ccccc3)N(c3cc(C(F)(F)F)ccc3Cl)C2=O)cc1`: the GI50 in the assay on DU-145 prostate was 51.5 µM; in the assay on HCC-2998 colon, 64000 nM; in the assay on HOP-92 NSCLC, 75.9 µM; in the assay with MDA-MB-231 breast, greater than 100000 nM; in the assay on MDA-MB-435 it was 50300 nM; with NCI-H23 lung it was greater than 100000 nM. In addition, the GI50 in the assay with SF-268 CNS was 48.4 µM; in the assay with SK-OV-3 ovarian, greater than 100000 nM; in the assay with SN12C renal it was greater than 100000 nM; in the assay with SW-620 colon, 62100 nM. Also, the TGI in the assay on DU-145 prostate, in the assay with HCC-2998 colon, with HOP-92 NSCLC, in the assay on MDA-MB-231 breast, in the assay on MDA-MB-435 and in the assay on NCI-H23 lung was greater than 100 µM throughout. For the same compound, the TGI in the assay with SF-268 CNS, in the assay on SK-OV-3 ovarian, in the assay with SN12C renal and in the assay on SW-620 colon was greater than 100 µM throughout.

The values above are taken from PubChem BioAssay (NCI).
